# Data as given in article PMC5124248, “Antitumor activity of TY-011 against gastric cancer by inhibiting Aurora A, Aurora B and VEGFR2 kinases” (Journal of Experimental & Clinical Cancer Research : CR, 2016).
# Values joined by “and” are separate entries in the source; they are usually repeats but may differ in a detail not shown here. Equal entries are not always repeated. “Also recorded” adds a separate entry of the source. Where two headings read alike, the source gives them in different places. Marks after values point to notes of the source that are not given here.
# How the values were obtained:
# Aurora A = molecular target: T1, Aurora A (Homo sapiens, UniProt O14965); experiment: HTRF KinEASE-STK kinase assay, Aurora A; assay type: biochemical
# T1 construct: gift from Professor Jia Li, Shanghai Institute of Materia Medica/Chinese Academy of Sciences
# T1 sequence (O14965 1-403): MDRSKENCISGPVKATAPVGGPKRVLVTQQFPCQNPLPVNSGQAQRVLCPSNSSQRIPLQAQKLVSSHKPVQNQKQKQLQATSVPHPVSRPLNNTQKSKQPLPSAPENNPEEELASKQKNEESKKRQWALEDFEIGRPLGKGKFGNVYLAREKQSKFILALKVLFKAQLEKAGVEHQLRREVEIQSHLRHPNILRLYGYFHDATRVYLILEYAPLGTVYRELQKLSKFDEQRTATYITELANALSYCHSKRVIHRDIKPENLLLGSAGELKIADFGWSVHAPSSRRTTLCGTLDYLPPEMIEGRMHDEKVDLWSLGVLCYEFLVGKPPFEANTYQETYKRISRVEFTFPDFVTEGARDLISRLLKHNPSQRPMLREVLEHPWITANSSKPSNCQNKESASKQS
# Text: The inhibition of TY-011 on activity of Aurora A, Aurora B and VEGFR2 was characterized by HTRF® KinEASE™-STK/TK kit according to the manufacturer’s instructions (Cisbio Assays, Codolet, France). Aurora A and Aurora B were gifts from Professor Jia Li, Shanghai Institute of Materia Medica/Chinese Academy of Sciences. VEGFR2 was purchased from Carna Biosciences (Kobe, Japan).
# SGC-7901 cells = experiment: Annexin V/PI apoptosis analysis, SGC-7901; assay type: cell-based, human; conditions: 48 h (14.1% control)
# Protocol: Apoptosis was detected by FITC Annexin V Apoptosis Detection Kit I according to the manufacturer’s instructions (Dojindo, Kumamoto, Japan) to determine the phosphatidyl serine exposure. Apoptotic cells were quantified by a flow cytometer (Guava EasyCyte 6HT-2 L, Merck Millipore, Billerica, MA, USA) using the InCyte software. At least 10 000 cells were analyzed for each data point.
# human MGC-803 xenograft = experiment: Antitumor activity in vivo, MGC-803 xenograft in nude mice; parameters: species or system BALB/c nu/nu mice; conditions: for Inhibition rate (%): by tumor weight; for Body weight (g) End / Body weight (g) Start / Tumor volume (mm^3) End / Tumor volume (mm^3) Start / Tumor weight: mean ± SEM; for Tumor weight: control 0.79 g
# Protocol: The animals were housed in specific pathogen-free (SPF) conditions at Key Laboratory of Brain Functional Genomics, Ministry of Education, and were acclimatized for a week prior to use. […] When the tumors reached a mean group size of 100 ~ 150 mm^3, the mice were randomized into control and treatment groups to receive treatment accordingly. […] The tumor growth was recorded with the measurement of length (L) and width (W) by caliper every other day, and calculated as tumor volume (V) = L × W^2/2. Meanwhile, the body weights of mice were recorded. The tumor volume at day n was expressed as relative tumor volume (RTV) according to the following formula: RTV% = (TVn/TV0) ×100%, where TVn is the tumor volume at day n and TV0 is the tumor volume at day 0. The therapeutic effect of treatment was calculated with formula T/C (%) = mean RTV of the treated group/mean RTV of the control group × 100%. […] The tumor regression of individual mouse was defined as the tumor volume at the end was less than the tumor volume when treatment was initiated.
# HUVECs = experiment: HUVEC tube formation assay; assay type: cell-based, human; conditions: HUVECs on Matrigel, 6 h
# Protocol: HUVECs were seeded onto pre-cooled 96-well tissue culture plate coated with Matrigel™ (BD Biosciences, FranklinLakes, NJ). After the cells attached, the cells were treated by various concentration of TY-011 or equivalent amount of DMSO. The plate was incubated at 37 °C, 5% CO2 humidified atmosphere for 6 h, then cell morphology was captured with a microscopy (Olympus IX73, Tokyo, Japan).
# [1] = test system: CD31 (angiogenesis marker) in tumor tissues; experiment: CD31 immunohistochemistry of xenograft tumor tissues; assay type: in vivo, BALB/c nu/nu mice; conditions: TY-011 treated group vs control group
# Text: Female BALB/c nu/nu mice (5–6 weeks, 16–18 g) were obtained from Sino-British SIPPR/BK Lab. Animal Ltd, Shanghai, China, with the certification number of 2008001638201. The animals were housed in specific pathogen-free (SPF) conditions at Key Laboratory of Brain Functional Genomics, Ministry of Education, and were acclimatized for a week prior to use. Human MGC-803 xenografts were established by subcutaneously inoculating 5 × 10^6 cells into nude mice. When the tumors reached a mean group size of 100 ~ 150 mm^3, the mice were randomized into control and treatment groups to receive treatment accordingly. TY-011 was orally administered at 3, 6 and 9 mg/kg once a day for 13 days. […] The tumor growth was recorded with the measurement of length (L) and width (W) by caliper every other day, and calculated as tumor volume (V) = L × W^2/2. Meanwhile, the body weights of mice were recorded. The tumor volume at day n was expressed as relative tumor volume (RTV) according to the following formula: RTV% = (TVn/TV0) ×100%, where TVn is the tumor volume at day n and TV0 is the tumor volume at day 0. The therapeutic effect of treatment was calculated with formula T/C (%) = mean RTV of the treated group/mean RTV of the control group × 100%. […] The tumor regression of individual mouse was defined as the tumor volume at the end was less than the tumor volume when treatment was initiated. […]
# [2] = 3 mg/kg oral once a day for 13 days
# [3] = 6 mg/kg oral once a day for 13 days
# [4] = 9 mg/kg oral once a day for 13 days
smiles,measurement,setting,value
"CCc1cc2c(cn1)C(c1ccccc1Cl)=Nc1c(n[nH]c1C)N2 [TY-011, 9-(2-chloro-phenyl)-6-ephyl-1-methyl-2,4-dihydro-2,3,4,7,10-pentaaza-benzo[f]azulene]",IC50,"Aurora A; Table S1, read-out: IC50 Aurora A",100 nM
same,IC50,"Aurora A; mean ± SD of three independent experiments, read-out: Aurora A IC50",102 ± 10.1 nM
same,apoptotic cells,"SGC-7901 cells; SGC-7901, 0.25 μM",17.2%
same,apoptotic cells,"SGC-7901 cells; SGC-7901, 0.5 μM",28.4%
same,apoptotic cells,"SGC-7901 cells; SGC-7901, 1 μM",54.3%
same,T/C (%),human MGC-803 xenograft; [2],54.55%
same,TGI (%),human MGC-803 xenograft; [2],59.41%
same,Inhibition rate (%),human MGC-803 xenograft; [2],64.9%
same,Body weight (g) End,human MGC-803 xenograft; [2],21.8 ± 0.1 g
same,Body weight (g) Start,human MGC-803 xenograft; [2],20.8 ± 0.1 g
same,Tumor volume (mm^3) End,human MGC-803 xenograft; [2],433.6 ± 16.2*** mm^3
same,Tumor volume (mm^3) Start,human MGC-803 xenograft; [2],192.8 ± 7.1 mm^3
same,Tumor weight,human MGC-803 xenograft; [2],0.28 g and 0.28 ± 0.02 g
same,T/C (%),human MGC-803 xenograft; [3],21.82%
same,TGI (%),human MGC-803 xenograft; [3],103.77%
same,tumor regression (share of mice),"human MGC-803 xenograft; 6 mg/kg oral once a day for 13 days, 6/8 mice",75%
same,Inhibition rate (%),human MGC-803 xenograft; [3],87.7%
same,Body weight (g) End,human MGC-803 xenograft; [3],20.3 ± 0.2 g
same,Body weight (g) Start,human MGC-803 xenograft; [3],20.9 ± 0.1 g
same,Tumor volume (mm^3) End,human MGC-803 xenograft; [3],168.8 ± 7.1*** mm^3
same,Tumor volume (mm^3) Start,human MGC-803 xenograft; [3],191.2 ± 6.2 mm^3
same,Tumor weight,human MGC-803 xenograft; [3],0.10 g and 0.10 ± 0.01 g
same,T/C (%),human MGC-803 xenograft; [4],14.53%
same,TGI (%),human MGC-803 xenograft; [4],113.09%
same,tumor regression (share of mice),"human MGC-803 xenograft; 9 mg/kg oral once a day for 13 days, 8/8 mice",100%
same,Inhibition rate (%),human MGC-803 xenograft; [4],89.0%
same,Body weight (g) End,human MGC-803 xenograft; [4],21.7 ± 0.1 g
same,Body weight (g) Start,human MGC-803 xenograft; [4],21.4 ± 0.1 g
same,Tumor volume (mm^3) End,human MGC-803 xenograft; [4],111.4 ± 3.6*** mm^3
same,Tumor volume (mm^3) Start,human MGC-803 xenograft; [4],189.0 ± 4.9 mm^3
same,Tumor weight,human MGC-803 xenograft; [4],0.09 g and 0.09 ± 0.01 g
same,drug-related deaths and body weight of mice,"human MGC-803 xenograft; 3, 6 and 9 mg/kg oral once a day for 13 days",did not affect the body weight of mice; also recorded: did not cause drug-related deaths or any loss in body weight of mice
same,"damages to vital organs (heart, liver, spleen, lung and kidney) or clinical signs","human MGC-803 xenograft; mice treated with TY-011, data not shown",no obvious damages to vital organs
same,tube meshes (tube formation),HUVECs,disturbed
same,CD31 staining in tumor tissues,[1],much less than control group
